Results: PubChem BioAssay (NCI)
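Tested at 5 concentrations; 48 h exposure; 96-well plates; endpoints linearly interpolated, else capped at highest concentration. GI50 is the concentration that inhibits growth by half. TGI is the concentration that stops growth completely.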

Columns and labels:
Assay in all cases: NCI-60 cell line screen, 48 h
M14 melanoma = system: M14 melanoma
HT29 colon = system: HT29 colon
MOLT-4 leukemia = system: MOLT-4 leukemia
OVCAR-3 ovarian = system: OVCAR-3 ovarian
MALME-3M melanoma = system: MALME-3M melanoma
T-47D breast = system: T-47D breast
PC-3 prostate = system: PC-3 prostate
MDA-MB-435 = system: MDA-MB-435
HS 578T breast = system: HS 578T breast

SMILES | TGI (M14 melanoma) | TGI (HT29 colon) | TGI (MOLT-4 leukemia) | TGI (OVCAR-3 ovarian) | TGI (MALME-3M melanoma) | TGI (T-47D breast) | TGI (PC-3 prostate) | TGI (MDA-MB-435) | TGI (HS 578T breast) | GI50 (T-47D breast) | GI50 (HS 578T breast) | GI50 (HT29 colon) | GI50 (MOLT-4 leukemia) | GI50 (OVCAR-3 ovarian) | GI50 (MDA-MB-435)
COC1CCC(CO)OO1 (stereo unspecified) | > 100 µM | > 100 µM | > 100 µM | 80.5 µM | > 100 µM |  |  |  |  |  |  |  |  |  | 
CN1Cc2ccccc2C2(COc3ccccc3C2=O)C1 (stereo unspecified) | > 100 µM | > 100 µM | > 100 µM | > 100 µM | > 100 µM |  |  |  |  |  |  |  |  |  | 
N/C(=N\N=C/c1c(O)cc(O)cc1O)NO |  | > 100 µM | > 100 µM | > 100 µM | > 100 µM |  |  |  |  |  |  |  |  |  | 
CC1(C)Cc2ccccc2C(C)(Cl)C(=O)N1 (stereo unspecified) | > 10 µM | > 10 µM | > 10 µM | > 10 µM | > 10 µM | > 10 µM | > 10 µM | > 10 µM |  |  |  |  |  |  | 
COC(=O)CCCc1nc2ccccc2nc1N=Nc1ccccc1 | 76.7 µM | > 100 µM | 26.3 µM | > 100 µM | 74.7 µM | > 100 µM | > 100 µM | > 100 µM |  |  |  |  |  |  | 
CCOC(=O)C1=C(N2CCCC2)C(=O)C(C(=O)OCC)C1 (stereo unspecified) | > 100 µM |  | > 100 µM | > 100 µM | > 100 µM | > 100 µM | > 100 µM | > 100 µM |  |  |  |  |  |  | 
CSCCC(NC(=O)C(Cc1c[nH]c2ccccc12)NC(=O)CCNC(=O)OC(C)(C)C)C(=O)NC(CC(=O)O)C(=O)NC(Cc1ccccc1)C(N)=O (stereo unspecified) | > 50 µM | > 50 µM | > 50 µM | > 50 µM |  | > 50 µM | > 50 µM | > 50 µM | > 50 µM |  |  |  |  |  | 
C=CC(C)(C)/C(=C\CO[Si](C(C)C)(C(C)C)C(C)C)C(=O)N(C)c1ccccc1I | 33.6 µM | 27.1 µM | 25.2 µM | 26.2 µM |  | 25.3 µM | 12.6 µM | 73.9 µM | 27.1 µM |  |  |  |  |  | 
C=C1c2nc3ccccc3n2C=C(c2ccccc2)N1c1ccc(C)cc1 | > 100 µM |  | > 100 µM | > 100 µM | > 100 µM |  | > 100 µM | > 100 µM |  |  |  |  |  |  | 
C/C(=N\Nc1nc2cc(F)ccc2s1)c1ccccn1 | 4.07 µM | 3.33 µM | > 100 µM | 5.45 µM | 23 µM | > 100 µM | 10.4 µM | > 100 µM |  |  |  |  |  |  | 
CCOC(=O)/C=C(/C(=O)OCC)n1cc(C)c(=O)n(Cc2cn(CCCCOC(C)=O)nn2)c1=O |  | 20.5 µM | 24.9 µM | 33.4 µM |  | > 100 µM | 40.3 µM | 28.4 µM | 59 µM |  |  |  |  |  | 
COc1cccc(C2C(C#N)=C(N)Oc3cc(OCCCCCC[P+](c4ccccc4)(c4ccccc4)c4ccccc4)ccc32)c1 (stereo unspecified) |  | 3.67 µM | 3.96 µM | 1.37 µM |  | 1.95 µM |  | 1.31 µM | 2.78 µM | 0.354 µM | 0.608 µM | 0.613 µM | 1.22 µM | 0.382 µM | 0.357 µM
CC1(C)CC(=O)C2=C(C1)NC(=S)C(C#N)C2c1ccccc1 (stereo unspecified) | > 100 µM | > 100 µM |  | > 100 µM | > 100 µM |  | > 100 µM | > 100 µM | > 100 µM |  |  |  |  |  | 
Cc1ccc(N=Nc2c(O)ccc3ccccc23)c(C)c1 | > 100 µM | > 100 µM | > 100 µM | > 100 µM |  | > 100 µM | > 100 µM | > 100 µM | > 100 µM |  |  |  |  |  | 
Cc1cc2ccccc2oc(=O)/c1=N\Nc1ccccc1 | > 100 µM | > 100 µM | > 100 µM | > 100 µM | > 100 µM |  | > 100 µM | > 100 µM |  |  |  |  |  |  | 
Nc1ccnc2c1ncn2[C@H]1C[C@H](O)[C@@H](CO)O1 | > 100 µM | > 100 µM | > 100 µM | > 100 µM |  | > 100 µM | > 100 µM | > 100 µM | > 100 µM |  |  |  |  |  | 
Oc1c(NCn2nc(CCCCCCCCc3nn(CNc4ccc5ccccc5c4O)c(=S)o3)oc2=S)ccc2ccccc12 | > 100 µM | > 100 µM | > 100 µM |  | > 100 µM |  | > 100 µM | 43.2 µM |  |  |  |  |  |  | 
CC(C)(C)N=C1C(=O)C2(C)CCC1C2(C)C (stereo unspecified) | > 100 µM | > 100 µM |  | > 100 µM | > 100 µM | > 100 µM | > 100 µM | > 100 µM |  |  |  |  |  |  | 
COc1ccc(-c2nc(-c3cnccn3)n(C/C=C/c3ccccc3)n2)cc1 | > 100 µM | > 100 µM | > 100 µM | > 100 µM |  | > 100 µM | > 100 µM | > 100 µM |  |  |  |  |  |  | 
COc1ccc(NCn2nc(CCCCCCCCc3nn(CNc4ccc(OC)cc4)c(=S)o3)oc2=S)cc1 | > 100 µM | > 100 µM | > 100 µM |  | > 100 µM |  | > 100 µM | > 100 µM |  |  |  |  |  |  | 
COc1cc(/C=C2\N=C(c3ccccc3)N(c3cc4cc(Sc5ccccc5)ccc4[nH]3)C2=O)ccc1O | > 50 µM | > 50 µM | > 50 µM |  | > 50 µM | > 50 µM |  | 5.56 µM |  |  |  |  |  |  | 
CC12CC(c3ccccc3O1)C(C(=O)Nc1nccs1)C(=O)N2 (stereo unspecified) | > 100 µM | > 100 µM | > 100 µM | > 100 µM | > 100 µM |  | > 100 µM | > 100 µM | > 100 µM |  |  |  |  |  | 
